Our source for the Kd values is article PMC7293037, “Fuse to defuse: a self-limiting ribonuclease-ring nuclease fusion for type III CRISPR defence” (Nucleic Acids Research, 2020).

Experiment [1] concerns the target T1, Csx1-Crn2.
T1 construct: full length, 563 aa natural fusion; synthetic gene codon-optimised, expressed in E. coli C43 (DE3); N-terminal His tag removed by TEV; V177L in the cloned gene; dimer
The experiment is described as follows: EMSA with radiolabelled cA4. The experiment is classed as binding, Marinitoga piezophila. To be noted: pH 7.5, 2 mM MgCl2, 25 °C; Crn2 ring nuclease site (CARF site also present); labelled compound; no obvious gel shift, value judged from cA4 cleavage at high protein concentration; discussion gives > 1; read-out: apparent KD. Background: In EMSA bound probe runs differently from free probe, usually more slowly.

Experiment [2] concerns the target T1, Csx1-Crn2. The experiment can be described thus: EMSA with radiolabelled cA4. The class given is binding, Marinitoga piezophila. To be noted: pH 7.5, 2 mM MgCl2, 25 °C; Crn2 ring nuclease site (CARF site also present); labelled compound; read-out: apparent KD.

Where two headings read alike, the source gives them in different places.

In the case of `Nc1ncnc2c1ncn2[C@@H]1O[C@@H]2COP(=O)(O)O[C@H]3[C@@H](O)[C@H](n4cnc5c(N)ncnc54)O[C@@H]3COP(=O)(O)O[C@H]3[C@@H](O)[C@H](n4cnc5c(N)ncnc54)O[C@@H]3COP(=O)(O)O[C@H]3[C@@H](O)[C@H](n4cnc5c(N)ncnc54)O[C@@H]3COP(=O)(O)O[C@H]2[C@H]1O` [cA4], the Kd in experiment [1] is roughly 1000 nM; in experiment [2], roughly 20 nM.
